The values below come from patent US11198677B2, “Deoxyuridine triphosphatase inhibitors containing amino sulfonyl linkage” (University of Southern California, priority 2015, dated 2021).

Experiment [1] relates to colorectal (HCT116 and SW620) cell line models. The experiment in a line: MTS growth inhibition assay. In kind it is cell-based. The conditions noted are these: increasing concentrations between 0 and 100 μmol/L; both colorectal cancer cell lines evaluated. The procedure:
The Cell Titer AQueous MTS assay (Promega) is carried out according to the manufacturers guidelines. […] The combination effect is determined by the combination index (CI) method utilizing Calcusyn software (Biosoft, Ferguson, Mo.). Fraction affected (FA) is calculated from the percent growth inhibition: FA=[…]. CI values <1, synergism; 1-1.2, additive and >1.2, antagonism.
Test compounds are evaluated for their antitumor activity in colorectal cancer cells using the MTS growth inhibition assay. HCT116 and SW620 cells are exposed to increasing concentrations of each agent for 72 hours and growth inhibition is directly compared to vehicle-treated controls. The NSCLC cell lines A549 and H1299 are exposed to increasing concentrations of each agent for 72 hours and growth inhibition is directly compared to vehicle-treated controls.
MTS growth inhibition assays are performed to evaluate the effectiveness of the test compounds alone and in combination with the fluoropyrimidine thymidylate synthase (TS) inhibitor 5-fluorouracil (5-FU) at inhibiting the growth of colorectal (HCT116 and SW620) cell line models. […] Simultaneous treatment with increasing concentrations of 5-FU and a test compound at fixed concentrations of 25 μmol/L is determined.
(In general: Formazan colour is commonly taken as a measure of viable cells.)

In experiment [2] the test system is colorectal (HCT116), breast (MCF-7) and non-small cell lung (H1299, A549, H358 and H460) cell line models. Nature of the experiment: Colony forming assay. The conditions noted are these: increasing concentrations between 0.5 and 2.5 μmol/L; all cell lines evaluated. In kind it is cell-based. As to the method:
Colony forming assay showing the ability of colon (SW620, HCT116), non-small cell lung (A549, H460, H1299 and H358) and breast (MCF7) cancer cells to survive and proliferate following transient 24 hour exposure to test compounds, FUdR and combinations are determined. Specifically, cells are seeded at densities between 50 and 100 cells/well in 24-well plates. Twenty-four hours later, cells are treated with increasing concentrations of a test compound, a fixed dose of FUdR and combinations of these. After 24 hours, drug is removed, cells are rinsed and allowed to outgrow for 10-14 days. At the conclusion of the outgrowth, cells are fixed in 60% ice cold methanol and stained with 0.1% crystal violet, scanned and counted. Data is presented as percentage of untreated controls (mean±SD). Fraction affected and combination indexes are calculated according to the method of Chou and Talalay where <1 is indicative of a synergistic drug interaction.
Colony forming assays are performed to evaluate the effectiveness of test compounds alone and in combination with the fluoropyrimidine thymidylate synthase (TS) inhibitor fluorodeoxyuridine (FUdR) at reducing cancer cell viability in colorectal (HCT116), breast (MCF-7) and non-small cell lung (H1299, A549, H358 and H460) cell line models. […]

With `O=c1[nH]cc(F)c(=O)[nH]1` [Compound 5-FU, 5-fluorouracil], the growth inhibition result in experiment [1] is “dose-dependent increases in growth inhibition”.

As for `O=c1[nH]c(=O)n([C@H]2C[C@H](O)[C@@H](CO)O2)cc1F` [FUdR, fluorodeoxyuridine], in experiment [2], the colonies formed entry was “dose-dependent decreases in colonies formed”.
